In patent publication US7994321B2, “Substituted thieno[3,2-C]pyridine-7-carboxylic acid derivatives” (Hoffmann-La Roche Inc., priority 2006, dated 2011):
pIC50: −log10 of the molar value.

Target: T1, Human recombinant EE-tagged PDGFRβ (Homo sapiens, UniProt P09619)
T1 construct: made in house; host or cells: Sf9 cells
Test: PDGFRβ IMAP Kinase Assay (fluorescence polarization)
Assay type: biochemical
Conditions: Kinase Enzyme Inhibition Assay; IMAP FP; FITC-labeled peptide substrate, ATP; 60 minutes at room temperature
Source text: The assay uses IMAP Fluorescence polarization (FP) assay platform based on the high affinity binding of phosphate by immobilized metal coordination complexes. The substrate used in this assay is a Fitc labeled peptide: FITC-ALTSNQEYLDLSMPL. Upon substrate peptide's phosphorylation, the IMAP binding reagent complexes with phosphate groups on phosphopeptides generated in the PDGFRβ reaction, which causes a change in the rate of the molecular motion of the peptide, and results in an increase in the FP values.
• Enzyme: Human recombinant EE-tagged PDGFRβ, expressed in Sf9 cells (stock concentration 74.5 μM, from Protein Biochemistry, RDT); store at −80° C. • Substrate: Synthesized Fitc labeled peptide: FITC-ALTSNQEYLDLSMPL; store at −20° C. • Positive Control Staurosporine (1 mM stock in DMSO, Calbiochem) • Robotic System Workstation: Tomtec Quadra • Reader: Acquest 384.1356 (Molecular Devices); FP reading method • Assay Plate: BD Falcon 30-μL 384 assay plate (Cat # 353972), and Costar 384 black plate (Cat # 3710) Assay Procedures: (1) Prepare Assay Buffer-MOPS Buffer: 20 mM MOPS (Teknova) pH 7.1, 5 mM sodium acetate, 6.25 mM MgCl2, 0.5 mM EDTA, 1 mM DTT, 0.04 mM NaVO4, 0.02% BSA. (2) Prepare Substrate Mix containing peptide (1 μM) and ATP (48.6 μM) in assay buffer. Add 8 μL of Substrate Mix in BD Falcon assay plates. (3) Prepare PDGFRβ (0.2 μM) in assay buffer. (4) Dilute compounds and positive control in DMSO (40 fold, 4-pt in series). Add 18 μL/well of assay buffer into 384 polypropylene compound plates containing 2 μL of compound solution in each well, mix and transfer 4 μl/well of diluted solution into the BD Falcon assay plates containing 8 μL of Substrate Mix (step 2) in each well. Then add 4 μl/well of PDGFRβ solution (step 3) in all wells except blank wells. Add 4 μl/well of assay buffer into blank wells. (5) Incubate at room temperature for 60 minutes. (6) Prepare 1:400 IMAP bead mix following the instruction given in the IMAP Bead Binding System Kit (Molecular Devices), and add 30 μl/well of IMAP bead mix in Costar 384 black plates. (7) Transfer 2 μl/well of reaction solution (step 4-5) into Costar 384 black plates containing 30 μl/well of bead mix (step 6). (8) Incubate at RT for 2 hours. (9) Read FP values at 485 nm and 530 nm on Acquest.
Kinase Enzyme Inhibition Assay (IC50)

T1 sequence (P09619 33-1106): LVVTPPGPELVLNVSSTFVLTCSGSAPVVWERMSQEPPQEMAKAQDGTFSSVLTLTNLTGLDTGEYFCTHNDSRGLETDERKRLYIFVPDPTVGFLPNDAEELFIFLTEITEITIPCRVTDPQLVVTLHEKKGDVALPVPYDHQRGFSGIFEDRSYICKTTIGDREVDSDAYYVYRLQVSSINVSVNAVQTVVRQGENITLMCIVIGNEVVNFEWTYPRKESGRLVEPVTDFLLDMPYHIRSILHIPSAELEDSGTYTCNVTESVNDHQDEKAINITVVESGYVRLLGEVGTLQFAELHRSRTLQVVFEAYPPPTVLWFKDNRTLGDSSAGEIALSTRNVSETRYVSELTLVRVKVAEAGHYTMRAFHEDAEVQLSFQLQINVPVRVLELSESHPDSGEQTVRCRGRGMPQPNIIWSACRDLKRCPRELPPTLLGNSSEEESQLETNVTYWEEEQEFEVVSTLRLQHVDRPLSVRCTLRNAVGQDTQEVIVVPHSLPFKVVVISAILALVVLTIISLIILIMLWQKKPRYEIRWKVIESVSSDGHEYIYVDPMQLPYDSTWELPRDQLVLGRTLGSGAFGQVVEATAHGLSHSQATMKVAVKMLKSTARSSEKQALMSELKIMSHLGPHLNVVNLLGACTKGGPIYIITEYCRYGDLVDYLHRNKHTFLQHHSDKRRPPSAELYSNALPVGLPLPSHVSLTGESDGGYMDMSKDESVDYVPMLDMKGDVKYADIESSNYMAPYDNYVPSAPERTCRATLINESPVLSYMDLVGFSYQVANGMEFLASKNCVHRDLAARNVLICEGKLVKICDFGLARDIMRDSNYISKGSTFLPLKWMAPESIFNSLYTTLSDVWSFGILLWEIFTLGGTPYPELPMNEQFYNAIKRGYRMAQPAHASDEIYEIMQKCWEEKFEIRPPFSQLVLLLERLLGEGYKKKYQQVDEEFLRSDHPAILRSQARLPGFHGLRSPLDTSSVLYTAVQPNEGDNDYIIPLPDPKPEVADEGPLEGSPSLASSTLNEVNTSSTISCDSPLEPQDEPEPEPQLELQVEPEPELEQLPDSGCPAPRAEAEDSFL

SMILES | pIC50
COc1cccc(C(=O)Nc2ccc(C)c(OCc3csc4c(C(=O)NCCO)cncc34)c2)c1 [Example 31, 3-[5-(3-Methoxy-benzoylamino)-2-methyl-phenoxymethyl]-thieno[3,2-c]pyridine-7-carboxylic acid (2-hydroxy-ethyl)-amide] | > 4.70
CCOC(=O)c1cncc2c(COc3cccc(NC(=O)c4ccc(F)cc4)c3)csc12 [Example 8, 3-[3-(4-Fluoro-benzoylamino)-phenoxymethyl]-thieno[3,2-c]pyridine-7-carboxylic acid ethyl ester] | 6.47
O=C(Nc1cccc(OCc2csc3c(C(=O)NCCO)cncc23)c1)c1ccccc1 [Example 7, 3-(3-Benzoylamino-phenoxymethyl)-thieno[3,2-c]pyridine-7-carboxylic acid (2-hydroxy-ethyl)-amide] | 6.00
O=C(Nc1cccc(OCc2csc3c(C(=O)NCCO)cncc23)c1)c1cccc(Cl)c1 [Example 16, 3-[3-(3-Chloro-benzoylamino)-phenoxymethyl]-thieno[3,2-c]pyridine-7-carboxylic acid (2-hydroxy-ethyl)-amide] | 6.95
CCOC(=O)c1cncc2c(COc3cccc(NC(=O)c4cccc(OC)c4)c3)csc12 [Example 13, 3-[3-(3-Methoxy-benzoylamino)-phenoxymethyl]-thieno[3,2-c]pyridine-7-carboxylic acid ethyl ester] | 6.36
